How the values were obtained:
Test in all cases: relative viability (nuclei count vs DMSO), 5 days (fraction); higher = more cells survive
Ibrutinib + Foretinib = compound: C=CC(=O)N1CCC[C@@H](n2nc(-c3ccc(Oc4ccccc4)cc3)c3c(N)ncnc32)C1 [Ibrutinib] + COc1cc2c(Oc3ccc(NC(=O)C4(C(=O)Nc5ccc(F)cc5)CC4)cc3F)ccnc2cc1OCCCN1CCOCC1 [Foretinib] (partner 0.25 µM)
Method in brief: (§1)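 Each reported value is a median over duplicate plates. It expresses relative viability: treated-well nuclei count divided by vehicle-well nuclei count. Lung cancer cell lines in 1536-well plates were dosed by pin tool a day after seeding, alone with one drug or with a fixed anchor-drug dose plus five library-drug doses (not always all listed) in √10 steps, and nuclei were counted after 5 days.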

Ibrutinib + Trametinib = compound: C=CC(=O)N1CCC[C@@H](n2nc(-c3ccc(Oc4ccccc4)cc3)c3c(N)ncnc32)C1 [Ibrutinib] + CC(=O)Nc1cccc(-n2c(=O)n(C3CC3)c(=O)c3c(Nc4ccc(I)cc4F)n(C)c(=O)c(C)c32)c1 [Trametinib] (partner 0.02 µM)
Method in brief: as §1

Ibrutinib + Dasatinib = compound: C=CC(=O)N1CCC[C@@H](n2nc(-c3ccc(Oc4ccccc4)cc3)c3c(N)ncnc32)C1 [Ibrutinib] + Cc1nc(Nc2ncc(C(=O)Nc3c(C)cccc3Cl)s2)cc(N2CCN(CCO)CC2)n1 [Dasatinib] (partner 0.075 µM)
Method in brief: as §1

Ibrutinib + Tozasertib = compound: C=CC(=O)N1CCC[C@@H](n2nc(-c3ccc(Oc4ccccc4)cc3)c3c(N)ncnc32)C1 [Ibrutinib] + Cc1cc(Nc2cc(N3CCN(C)CC3)nc(Sc3ccc(NC(=O)C4CC4)cc3)n2)n[nH]1 [Tozasertib] (partner 0.1 µM)
Method in brief: as §1

## NCI-H1437
Ibrutinib + Foretinib; first compound 0.005 µM
  relative viability: 1.33
Ibrutinib + Foretinib; first compound 0.01581 µM
  relative viability: 1.19
Ibrutinib + Foretinib; first compound 0.05 µM
  relative viability: 1.26
Ibrutinib + Foretinib; first compound 0.1581 µM
  relative viability: 1.28
Ibrutinib + Foretinib; first compound 0.5 µM
  relative viability: 1.27
Ibrutinib + Trametinib; first compound 0.005 µM
  relative viability: 0.53
Ibrutinib + Trametinib; first compound 0.01581 µM
  relative viability: 0.51
Ibrutinib + Trametinib; first compound 0.05 µM
  relative viability: 0.555
Ibrutinib + Trametinib; first compound 0.1581 µM
  relative viability: 0.491
Ibrutinib + Trametinib; first compound 0.5 µM
  relative viability: 0.624
Ibrutinib + Dasatinib; first compound 0.005 µM
  relative viability: 0.313
Ibrutinib + Dasatinib; first compound 0.01581 µM
  relative viability: 0.39
Ibrutinib + Dasatinib; first compound 0.05 µM
  relative viability: 0.375
Ibrutinib + Dasatinib; first compound 0.1581 µM
  relative viability: 0.217
Ibrutinib + Dasatinib; first compound 0.5 µM
  relative viability: 0.362
Ibrutinib + Tozasertib; first compound 0.005 µM
  relative viability: 0.437
Ibrutinib + Tozasertib; first compound 0.01581 µM
  relative viability: 0.373
Ibrutinib + Tozasertib; first compound 0.05 µM
  relative viability: 0.472
Ibrutinib + Tozasertib; first compound 0.1581 µM
  relative viability: 0.403
Ibrutinib + Tozasertib; first compound 0.5 µM
  relative viability: 0.391

## NCI-H2347
Ibrutinib + Foretinib; first compound 0.01581 µM
  relative viability: 0.811
Ibrutinib + Foretinib; first compound 0.05 µM
  relative viability: 0.8
Ibrutinib + Foretinib; first compound 0.5 µM
  relative viability: 0.725
Ibrutinib + Trametinib; first compound 0.005 µM
  relative viability: 0.283
Ibrutinib + Trametinib; first compound 0.01581 µM
  relative viability: 0.228
Ibrutinib + Trametinib; first compound 0.05 µM
  relative viability: 0.37
Ibrutinib + Trametinib; first compound 0.1581 µM
  relative viability: 0.245
Ibrutinib + Trametinib; first compound 0.5 µM
  relative viability: 0.239
Ibrutinib + Dasatinib; first compound 0.01581 µM
  relative viability: 0.298
Ibrutinib + Dasatinib; first compound 0.05 µM
  relative viability: 0.274
Ibrutinib + Dasatinib; first compound 0.1581 µM
  relative viability: 0.188
Ibrutinib + Dasatinib; first compound 0.5 µM
  relative viability: 0.302
Ibrutinib + Tozasertib; first compound 0.01581 µM
  relative viability: 0.643
Ibrutinib + Tozasertib; first compound 0.05 µM
  relative viability: 0.739
Ibrutinib + Tozasertib; first compound 0.1581 µM
  relative viability: 0.532
Ibrutinib + Tozasertib; first compound 0.5 µM
  relative viability: 0.548

## NCI-H520
Ibrutinib + Foretinib; first compound 0.005 µM
  relative viability: 0.672
Ibrutinib + Foretinib; first compound 0.05 µM
  relative viability: 0.734
Ibrutinib + Foretinib; first compound 0.1581 µM
  relative viability: 0.945
Ibrutinib + Foretinib; first compound 0.5 µM
  relative viability: 0.531
Ibrutinib + Trametinib; first compound 0.005 µM
  relative viability: 0.486
Ibrutinib + Trametinib; first compound 0.01581 µM
  relative viability: 0.651
Ibrutinib + Trametinib; first compound 0.05 µM
  relative viability: 0.653
Ibrutinib + Trametinib; first compound 0.1581 µM
  relative viability: 0.794
Ibrutinib + Trametinib; first compound 0.5 µM
  relative viability: 0.621
Ibrutinib + Dasatinib; first compound 0.005 µM
  relative viability: 0.192
Ibrutinib + Dasatinib; first compound 0.05 µM
  relative viability: 0.183
Ibrutinib + Dasatinib; first compound 0.1581 µM
  relative viability: 0.237
Ibrutinib + Dasatinib; first compound 0.5 µM
  relative viability: 0.132
Ibrutinib + Tozasertib; first compound 0.005 µM
  relative viability: 0.428
Ibrutinib + Tozasertib; first compound 0.01581 µM
  relative viability: 0.341
Ibrutinib + Tozasertib; first compound 0.05 µM
  relative viability: 0.427
Ibrutinib + Tozasertib; first compound 0.1581 µM
  relative viability: 0.381
Ibrutinib + Tozasertib; first compound 0.5 µM
  relative viability: 0.39

## COR-L23
Ibrutinib + Foretinib; first compound 0.005 µM
  relative viability: 1.08
Ibrutinib + Foretinib; first compound 0.01581 µM
  relative viability: 0.886
Ibrutinib + Foretinib; first compound 0.05 µM
  relative viability: 1.04
Ibrutinib + Foretinib; first compound 0.1581 µM
  relative viability: 0.926
Ibrutinib + Foretinib; first compound 0.5 µM
  relative viability: 1
Ibrutinib + Trametinib; first compound 0.005 µM
  relative viability: 0.393
Ibrutinib + Trametinib; first compound 0.01581 µM
  relative viability: 0.574
Ibrutinib + Trametinib; first compound 0.05 µM
  relative viability: 0.621
Ibrutinib + Trametinib; first compound 0.1581 µM
  relative viability: 0.647
Ibrutinib + Trametinib; first compound 0.5 µM
  relative viability: 0.756
Ibrutinib + Dasatinib; first compound 0.005 µM
  relative viability: 0.614
Ibrutinib + Dasatinib; first compound 0.01581 µM
  relative viability: 0.396
Ibrutinib + Dasatinib; first compound 0.05 µM
  relative viability: 0.497
Ibrutinib + Dasatinib; first compound 0.1581 µM
  relative viability: 0.513
Ibrutinib + Dasatinib; first compound 0.5 µM
  relative viability: 0.544
Ibrutinib + Tozasertib; first compound 0.005 µM
  relative viability: 0.209
Ibrutinib + Tozasertib; first compound 0.01581 µM
  relative viability: 0.214
Ibrutinib + Tozasertib; first compound 0.05 µM
  relative viability: 0.247
Ibrutinib + Tozasertib; first compound 0.1581 µM
  relative viability: 0.227
Ibrutinib + Tozasertib; first compound 0.5 µM
  relative viability: 0.181

## NCI-H2405
Ibrutinib + Foretinib; first compound 0.005 µM
  relative viability: 1.11
Ibrutinib + Foretinib; first compound 0.01581 µM
  relative viability: 1.07
Ibrutinib + Foretinib; first compound 0.05 µM
  relative viability: 1.08
Ibrutinib + Foretinib; first compound 0.1581 µM
  relative viability: 1.06
Ibrutinib + Trametinib; first compound 0.005 µM
  relative viability: 0.546
Ibrutinib + Trametinib; first compound 0.01581 µM
  relative viability: 0.558
Ibrutinib + Trametinib; first compound 0.5 µM
  relative viability: 0.448
Ibrutinib + Dasatinib; first compound 0.005 µM
  relative viability: 0.232
Ibrutinib + Dasatinib; first compound 0.01581 µM
  relative viability: 0.19
Ibrutinib + Dasatinib; first compound 0.05 µM
  relative viability: 0.189
Ibrutinib + Dasatinib; first compound 0.1581 µM
  relative viability: 0.206
Ibrutinib + Dasatinib; first compound 0.5 µM
  relative viability: 0.237
Ibrutinib + Tozasertib; first compound 0.005 µM
  relative viability: 0.85
Ibrutinib + Tozasertib; first compound 0.01581 µM
  relative viability: 0.739
Ibrutinib + Tozasertib; first compound 0.05 µM
  relative viability: 0.798
Ibrutinib + Tozasertib; first compound 0.1581 µM
  relative viability: 0.75
Ibrutinib + Tozasertib; first compound 0.5 µM
  relative viability: 0.717

## A-427
Ibrutinib + Foretinib; first compound 0.005 µM
  relative viability: 1.01
Ibrutinib + Foretinib; first compound 0.01581 µM
  relative viability: 0.944
Ibrutinib + Foretinib; first compound 0.05 µM
  relative viability: 1.04
Ibrutinib + Foretinib; first compound 0.5 µM
  relative viability: 1.02
Ibrutinib + Trametinib; first compound 0.005 µM
  relative viability: 0.654
Ibrutinib + Trametinib; first compound 0.01581 µM
  relative viability: 0.777
Ibrutinib + Trametinib; first compound 0.05 µM
  relative viability: 0.782
Ibrutinib + Trametinib; first compound 0.5 µM
  relative viability: 0.694
Ibrutinib + Dasatinib; first compound 0.005 µM
  relative viability: 0.625
Ibrutinib + Dasatinib; first compound 0.01581 µM
  relative viability: 0.677
Ibrutinib + Dasatinib; first compound 0.05 µM
  relative viability: 0.769
Ibrutinib + Dasatinib; first compound 0.1581 µM
  relative viability: 0.666
Ibrutinib + Dasatinib; first compound 0.5 µM
  relative viability: 0.655
Ibrutinib + Tozasertib; first compound 0.005 µM
  relative viability: 0.22
Ibrutinib + Tozasertib; first compound 0.01581 µM
  relative viability: 0.185
Ibrutinib + Tozasertib; first compound 0.05 µM
  relative viability: 0.281
Ibrutinib + Tozasertib; first compound 0.1581 µM
  relative viability: 0.23
Ibrutinib + Tozasertib; first compound 0.5 µM
  relative viability: 0.212
